# Like-named read-outs stand apart in the source and are kept apart here. Square brackets hold non-standard residues; d marks the D form. Peptide text beside a SMILES is read from it.
# Tests used:
# [1] = Cytotoxicity assay (resazurin); assay type: cell-based; settings: human
# Protocol: Normal human cells used were BEAS-2B (ATCC CRL-9609), IMR-90 (ATCC CCL-186) and Human Umbilical Vein Endothelial Cells (HUVEC) (from Sigma-Aldrich) corresponding respectively to human normal lung epithelial, normal lung fibroblast cells and human normal endothelial cells. All cells except HUVEC cells were cultured in Dulbecco's modified essential medium (DMEM) supplemented with 10% fetal calf serum (FCS), 1% L-glutamine and 1% antibiotics (all from Invitrogen). HUVEC cells were cultured in specific endothelial media (from Sigma Aldrich). Cells were seeded onto […] maintained in a 5% CO2 incubator at 37 °C. Cells grown on 25 cm^2 flasks were detached using trypsin-EDTA solution (from Thermofisher), counted using Mallassez counting chamber and seeded into 96-well cell culture plates (Greiner bio-one) at approximately 10,000 cells per well. The cells were left to grow for 48-72 h at 37 °C in a 5% CO2 incubator until they reached confluence. Plates were then aspirated and increasing concentrations of peptides diluted in culture media were added to the cells for 48 h at 37 °C in a 5% CO2 incubator. At the end of the incubation, wells were emptied and cell viability was evaluated using Resazurin based in vitro toxicity assay kit (from Sigma-Aldrich) following manufacturer's instructions. Briefly, Resazurin stock solution was diluted 1:10 in sterile PBS containing calcium and magnesium (PBS, pH 7.4) and empty wells were filled with 100 µL of the diluted solution. After 4 h incubation at 37 °C, fluorescence intensity was measured using microplate reader (Synergy Mx, Biotek) with an excitation wavelength of 530 nm and an emission wavelength of 590 nm. The fluorescence values were normalized by the controls (buffer treated cells) and expressed as percent viability. The IC50 values of peptides on cell viability (i.e. the concentration of derivative causing a reduction of 50% of cell viability) were determined using GraphPad® Prism 7 software. t-Test and two way ANOVA analyses were used to address the significant differences between mean values with significance set at p < 0.05.
# Pseudomonas aeruginosa = assay: Stability of the peptides to proteases and human serum (MIC of digested peptides); assay type: in vitro ADME; settings: for MIC (µM) Serum4h: after 4 h at 37°C in human serum; for MIC (µM) Serum4h / MIC (µM) Chymotrypsin / MIC (µM) Pepsin / MIC (µM) Trypsin / MIC (µM) Serum24h / MIC (µM) Control: against Pseudomonas aeruginosa; for MIC (µM) Chymotrypsin: after 4 h at 37°C with chymotrypsin; for MIC (µM) Chymotrypsin / MIC (µM) Trypsin: pH 7; for MIC (µM) Pepsin: after 4 h at 37°C with pepsin, pH2; for MIC (µM) Trypsin: after 4 h at 37°C with trypsin; for MIC (µM) Serum24h: after 24 h at 37°C in human serum; for stability to proteases and human serum: pepsin, trypsin, chymotrypsin; for MIC (µM) Control: peptide incubated in PBS, not treated with proteases
# Protocol: In order to evaluate the stability of the peptides to condition they will face in vivo, their resistance to proteases and human serum was evaluated (Oyama et al., 2017 Biofilms Microbiomes, Dec 1;3:33). Briefly, one volume of peptides (at 1 mM) was diluted in one volume of proteases (Pepsin, Trypsin, Chymotrypsin, Papain all from Sigma Aldrich and diluted at 2 mg/ml in HCl 10 mM pH2 for Pepsin, PBS pH 7 for Trypsin and Chymotrysin and PBS pH 6 for Papain) or human serum (Sigma Aldrich H4522). Peptides incubated in the same conditions in PBS were used as controls. After 4 h (for proteases) and 4 or 24 h (for human serum) of incubation at 37°C, PMSF was added to the reaction mixture at a final concentration of 100 µM to stop the digestion. MIC of the digested peptides were then determined as explained above.
# MDA-MB-231 = assay: Antitumor / antiproliferative activity (resazurin); assay type: cell-based, human; settings: breast cancer cells; 5,000 cells/well; 48 h; read-out: IC50 antiproliferative effect MDA-MB-231
# Protocol: (§1) Human cancer cell lines (Mia PaCa-2 (CRL-1420), PC-3 (CRL-1435), MDA-MB-231 (HTB-26)) and normal lung fibrobasts (BEAS-2B (ATCC CRL-9609) and IMR-90 (ATCC CCL-186)) were obtained from American Type Culture Collection (ATCC). HUVEC cells were obtained from Sigma Aldrich and were grown in defined all-in-one ready to use endothelial cell growth medium (Sigma Aldrich). Other cells were cultured in Dulbecco's modified Eagle's medium (DMEM, Gibco Life Technologies) supplemented with 10% heat-inactivated fetal calf serum (FCS, Lonza) at 37 °C in an incubator containing 5% CO2. Cells were sub-cultured in new media every 3-4 days. Antiproliferative / antitumor effects of the peptides were measured as previously described (Borie et al., Eur J Med Chem. 2018;148:306-313). Briefly, cells were detached from growing flask using trypsin, cells were counted and seeded in 96 well-plates in the growth media at an initial cell density of 5000 cells/well. Cells were left for 4 h to attach to the wells. Cells were then treated with increasing concentrations of peptides diluted in culture media. After 48 h incubation at 37 °C in a 5% CO2 incubator, wells were emptied and cell number was evaluated using Resazurin based in vitro toxicity assay kit (from Sigma-Aldrich) following manufacturer's instructions. Briefly, Resazurin stock solution was diluted 1:10 in sterile PBS containing calcium and magnesium (PBS, pH 7.4) and empty wells were filled with 100 µL of the diluted solution. After 4 h incubation at 37 °C, fluorescence intensity was measured using microplate reader (Synergy Mx, Biotek) with an excitation wavelength of 530 nm and an emission wavelength of 590 nm. The fluorescence values were normalized by the controls (buffer treated cells) and expressed as per-cent viability. The IC50 values of peptides on cell division / proliferation (i.e. the concentration of derivative causing a reduction of 50% of cell division) were determined using GraphPad ® Prism 7 software. t-Test and two way ANOVA analyses were used to address the significant differences between mean values with significance set at p < 0.05.
# MiaPaCa-2 = assay: Antitumor / antiproliferative activity (resazurin); assay type: cell-based, human; settings: pancreas cancer cells; 5,000 cells/well; 48 h; read-out: IC50 antiproliferative effect MiaPaCa-2
# Protocol: as §1
# PC-3 = assay: Antitumor / antiproliferative activity (resazurin); assay type: cell-based, human; settings: prostate cancer cells; 5,000 cells/well; 48 h; read-out: IC50 antiproliferative effect PC-3
# Protocol: as §1
# [2] = test system: B. subtilis (Nisin-resistant)
# M. smegmatis = settings: 72 h
# [3] = BEAS-2B normal lung epithelial cells, normal lung epithelium, read-out: Cytotoxicity IC50 (µM) BEAS
# [4] = HUVEC (human umbilical vein endothelial cells), normal endothelium, read-out: Cytotoxicity IC50 (µM) HUVEC
# [5] = IMR-90 normal lung fibroblast cells, read-out: Cytotoxicity IC50 (µM) IMR90
smiles,measurement,setting,value
"CC[C@@H](C)[C@@H](N)C(=O)N[C@H](CC(C)C)C(=O)N[C@H](CCCCN)C(=O)N[C@H](C)C(=O)N[C@@H](C(=O)N[C@H](CCCCN)C(=O)N[C@H](CCCCN)C(=O)N[C@H](CC(C)C)C(=O)N[C@H](CC(C)C)C(=O)N[C@H](CCCCN)C(N)=O)[C@H](C)CC [(i1k10*) enantio, ilkaikkllk] (H-[dI][dL][dK][dA][dI][dK][dK][dL][dL][dK]-NH2)",CC50 at 48 h,[1]; [3],726 µM
same,CC50 at 48 h,[1]; [4],683 µM
same,CC50 at 48 h,[1]; [5],365 µM
same,MIC (µM) Serum4h,Pseudomonas aeruginosa,1.5 µM
same,MIC (µM) Chymotrypsin,Pseudomonas aeruginosa,1.5 µM
same,MIC (µM) Pepsin,Pseudomonas aeruginosa,1.5 µM
same,MIC (µM) Trypsin,Pseudomonas aeruginosa,1.5 µM
same,MIC (µM) Serum24h,Pseudomonas aeruginosa,0.75 µM
same,stability to proteases and human serum,Pseudomonas aeruginosa,not affected
same,MIC (µM) Control,Pseudomonas aeruginosa,1.5 µM
same,IC50,MDA-MB-231,61.7 µM
same,IC50,MiaPaCa-2,13.4 µM
same,IC50,PC-3,39.3 µM
same,MBC (µM) P. aeruginosa,P. aeruginosa,3.12 µM
same,MIC (µM) P. aeruginosa,P. aeruginosa,3.125 µM
same,MIC PA,P. aeruginosa,3.125 µM
same,MBC (µM) L. lactis,L. lactis,3.12 µM
same,MIC (µM) L. lactis,L. lactis,1.5 µM
same,MBC (µM) B. subtilis (Nisin-resistant),[2],12.5 µM
same,MIC (µM) B. subtilis (Nisin-resistant),[2],12.5 µM
same,MBC (µM) A. gandavensis,A. gandavensis,1.5 µM
same,MIC (µM) A. gandavensis,A. gandavensis,1.5 µM
same,MBC (µM) E. coli EHEC K88,E. coli EHEC K88,50 µM
same,MIC (µM) E. coli EHEC K88,E. coli EHEC K88,50 µM
same,MBC (µM) P. aeruginosa FQR,P. aeruginosa FQR,100 µM
same,MIC (µM) P. aeruginosa FQR,P. aeruginosa FQR,12.5 to 25 µM
same,MBC (µM) P. aeruginosa 01,P. aeruginosa 01,50 µM
same,MIC (µM) P. aeruginosa 01,P. aeruginosa 01,12.5 µM
same,MBC (µM) S. flexneri,S. flexneri,12.5 µM
same,MIC (µM) S. flexneri,S. flexneri,12.5 µM
same,MBC (µM) C. farmeri,C. farmeri,50 µM
same,MIC (µM) C. farmeri,C. farmeri,12.5 µM
same,MBC (µM) C. rodentium,C. rodentium,50 µM
same,MIC (µM) C. rodentium,C. rodentium,50 µM
same,MBC (µM) S. enterica,S. enterica,25 µM
same,MIC (µM) S. enterica,S. enterica,50 µM
same,MBC (µM) V. alginolyticus,V. alginolyticus,1.5 µM
same,MIC (µM) V. alginolyticus,V. alginolyticus,0.78 to 1.56 µM
same,MBC (µM) H. pylori,H. pylori,50 µM
same,MIC (µM) H. pylori,H. pylori,50 µM
same,MIC (µM) M. smegmatis,M. smegmatis,6.25 µM
"CC[C@@H](C)[C@@H](N)C(=O)N[C@H](CC(C)C)C(=O)N[C@H](CCCCN)C(=O)N[C@H](C)C(=O)N[C@@H](C(=O)N[C@H](CCCCN)C(=O)N[C@H](CCCCN)C(=O)N[C@H](CC(C)C)C(=O)N[C@H](CC(C)C)C(=O)N[C@H](CCCCN)C(=O)N[C@H](CC(N)=O)C(N)=O)[C@H](C)CC [LTX-D (gallicune-1), ilkaikkllkn] (H-[dI][dL][dK][dA][dI][dK][dK][dL][dL][dK][dN]-NH2)",CC50 at 48 h,[1]; [3],843 µM
same,CC50 at 48 h,[1]; [4],869 µM
same,CC50 at 48 h,[1]; [5],653 µM
same,MIC (µM) Serum4h,Pseudomonas aeruginosa,25 µM
same,MIC (µM) Chymotrypsin,Pseudomonas aeruginosa,25 µM
same,MIC (µM) Pepsin,Pseudomonas aeruginosa,25 µM
same,MIC (µM) Trypsin,Pseudomonas aeruginosa,25 µM
same,MIC (µM) Serum24h,Pseudomonas aeruginosa,12.5 µM
same,stability to proteases and human serum,Pseudomonas aeruginosa,not affected
same,MIC (µM) Control,Pseudomonas aeruginosa,25 µM
same,IC50,MDA-MB-231,56.2 µM
same,IC50,MiaPaCa-2,6.51 µM
same,IC50,PC-3,33.7 µM
same,MBC (µM) P. aeruginosa,P. aeruginosa,1.5 µM
same,MIC (µM) P. aeruginosa,P. aeruginosa,1.5 µM
same,MIC PA,P. aeruginosa,1.5 µM
same,MIC (µM) E. coli,E. coli,6.25 µM
same,MBC (µM) L. lactis,L. lactis,1.5 µM
same,MIC (µM) L. lactis,L. lactis,1.5 µM
same,MBC (µM) B. subtilis (Nisin-resistant),[2],6.25 µM
same,MIC (µM) B. subtilis (Nisin-resistant),[2],6.25 µM
same,MBC (µM) A. gandavensis,A. gandavensis,1.5 µM
same,MIC (µM) A. gandavensis,A. gandavensis,1.5 µM
same,MBC (µM) E. coli EHEC K88,E. coli EHEC K88,50 µM
same,MIC (µM) E. coli EHEC K88,E. coli EHEC K88,50 µM
same,MBC (µM) P. aeruginosa FQR,P. aeruginosa FQR,12.5 µM
same,MIC (µM) P. aeruginosa FQR,P. aeruginosa FQR,6.25 to 12.5 µM
same,MBC (µM) P. aeruginosa 01,P. aeruginosa 01,25 µM
same,MIC (µM) P. aeruginosa 01,P. aeruginosa 01,6.25 µM
same,MBC (µM) S. flexneri,S. flexneri,12.5 µM
same,MIC (µM) S. flexneri,S. flexneri,12.5 µM
same,MBC (µM) C. farmeri,C. farmeri,6.25 µM
same,MIC (µM) C. farmeri,C. farmeri,6.25 µM
same,MBC (µM) C. rodentium,C. rodentium,25 µM
same,MIC (µM) C. rodentium,C. rodentium,12.5 µM
same,MBC (µM) S. enterica,S. enterica,25 µM
same,MIC (µM) S. enterica,S. enterica,25 µM
same,MBC (µM) V. alginolyticus,V. alginolyticus,0.78 µM
same,MIC (µM) V. alginolyticus,V. alginolyticus,0.78 µM
same,MBC (µM) H. pylori,H. pylori,50 µM
same,MIC (µM) H. pylori,H. pylori,50 µM
same,MIC (µM) M. smegmatis,M. smegmatis,25 µM
